Values quoted from earlier work, collected in article PMC8624105 (Viruses, 2021).

System: NHERF1 PDZ domains
Settings: PDZ/PBM interaction

ACE2: glycosylated integral membrane protein of 805 residues
interaction: shown to interact with NHERF1 PDZ domains
